Reference: patent publication US20170306409A1, “CANCER PATIENT SELECTION FOR ADMINISTRATION OF WNT SIGNALING INHIBITORS USING RNF43 MUTATION STATUS” (NOVARTIS AG, priority 2012, published 2017)
Where two headings read alike, the source gives them in different places.

What was measured:
Type in all cases: cell-based, human
RNF43 mutant cell lines = assay: EdU proliferation assay; conditions: 1 μM LGK974, 3 days
Method: Further, LGK974 induced the expression of differentiation marker MUC2, MUC5A/C in RNF43 mutant cells. LGK974 blocked EDU incorporation in RNF43 mutant cell lines, so Wnt inhibition in these cells leads to cell cycle arrest. LGK974-induced growth inhibition and cellular differentiation of RNF43 mutant cells are also obvious using Ki67 staining (anti-Ki67 (SP6) from Vector Laboratories, Burlingame, Calif., USA 94010) and Alcian Blue staining.
For the EdU proliferation assay, cells were plated in growth medium in 96 well plate at a density of 6000-12,000 cells per well, and treated with DMSO or 1 μM LGK974. After 3 days, the cells were treated with fresh growth medium containing 20 μM EdU, which was included in the Click-iT EdU Alexa Fluor 488 HCS assay kit (Invitrogen), and the plate was incubated for 2 hr at 37° C. in a humidified atmosphere containing 5% CO2. Cells were fixed with final 4% paraformaldehyde for 30 min, washed with PBS, permeabilized, and stained with 0.75% TritonX-100 and 50 μg/ml Hoechst in PBS for 30 min. After wash, the cells were proceeded EdU detection according to the instruction of Click-iT EdU assay kit. Triplet wells were performed for each condition.

SUIT-2 = assay: cell line proliferation assay (Cell Titer Glo)
Method: (§1) The sensitivity of pancreatic cells to LGK974 treatment were tested in a cellular proliferation assay in vitro. Twenty four human pancreatic cancer cell lines were treated with or without LGK974. Cellular proliferation data was generated in 384 well format. Cells were harvested and resuspended in their appropriate growth medium at a density of 1.5×10^4 cells per mL. […] Plates were then transferred to incubators on the ACP-1 system (37° C., 5% CO2) and cells were allowed to attach overnight. […] Following compound addition, plates were returned to the incubator for 120 hours. The assay plates were read with the addition of 10 μL of 1× Cell Titer Glo (Promega G7573) according to the manufacturer's instructions. Plates were then incubated at room temperature for ten minutes and read on the integrated Perkin Elmer Viewlux (2 second exposure, 2× bin, high sensitivity). The raw data was normalized using the DMSO control wells within each plate and the curve fitting for IC50 determination was performed. Cell growth was measured five days later with Cell Titer Glo (Promega). […] As shown in TABLE 4 and Example 4, all four cell lines harbor RNF43 loss-of-function (LOF) mutations

PK-1 = assay: cell line proliferation assay (Cell Titer Glo)
Method: as §1

PA-TU-8902 = assay: cell line proliferation assay (Cell Titer Glo)
Method: as §1

BXPC3 = assay: cell line proliferation assay (Cell Titer Glo)
Method: as §1

KP-2 = assay: cell line proliferation assay (Cell Titer Glo)
Method: as §1

SW1990 = assay: cell line proliferation assay (Cell Titer Glo)
Method: as §1

TCC-PAN2 = assay: cell line proliferation assay (Cell Titer Glo); conditions: for IC50: Cell Titer Glo, read-out: LGK974 IC50s in cell line proliferation assay
Method: as §1

PK-59 = assay: cell line proliferation assay (Cell Titer Glo)
Method: as §1

PA-TU-8988T = assay: cell line proliferation assay (Cell Titer Glo)
Method: as §1

HUP-T3 = assay: cell line proliferation assay (Cell Titer Glo)
Method: as §1

HPAFII = assay: cell line proliferation assay (Cell Titer Glo)
Method: as §1

Panc 05.04 = assay: cell line proliferation assay (Cell Titer Glo)
Method: as §1

KP-1NL = assay: cell line proliferation assay (Cell Titer Glo)
Method: as §1

KP-1N = assay: cell line proliferation assay (Cell Titer Glo)
Method: as §1

YAPC = assay: cell line proliferation assay (Cell Titer Glo)
Method: as §1

Capan-2 = assay: cell line proliferation assay (Cell Titer Glo)
Method: as §1

Panc1 = assay: cell line proliferation assay (Cell Titer Glo)
Method: as §1

PA-TU-8988S = assay: cell line proliferation assay (Cell Titer Glo)
Method: as §1

Panc 10.05 = assay: cell line proliferation assay (Cell Titer Glo)
Method: as §1

Axin2, KP2 = assay: Axin2 qPCR assay (pathway inhibition)
Method: (§2) For reverse transcription and quantitative PCR (qPCR), total RNA was extracted from cells or tumors using the RNeasy Plus Mini Kit (Qiagen). 1 μg of RNA were reverse transcribed with Taqman Reverse Transcription Reagents (Applied Biosystems) according to the manufacturer's instruction. Quantitative PCR was performed in 12 μl reactions consisting of 0.6 μl of 20× Taqman probe and PCR primer mix, 6 μl 2× Taqman FAST Advanced Master Mix (Applied Biosystems), and 5.4 μl diluted cDNA template. The thermocycling conditions utilized were 20 seconds at 95° C., followed by 40 cycles of 1 second at 95° C. and 20 seconds at 60° C. All experiments were performed in quadruplicates. Gene expression analysis was performed using the comparative ΔΔCT method and normalized with the housekeeping gene GUSB or 18S. The Taqman probes were purchased from Applied Biosystems.

Axin2, PaTu-8988T = assay: Axin2 qPCR assay (pathway inhibition)
Method: as §2

[1] = Homo sapiens, 120 hours, Cell Titer Glo, read-out: LGK974 IC50s in cell line proliferation assay

With Cc1cc(-c2ncc(CC(=O)Nc3ccc(-c4cnccn4)cn3)cc2C)ccn1 [LGK974, 2-[5-methyl-6-(2-methylpyridin-4-yl)pyridin-3-yl]-N-[5-(pyrazin-2-yl)pyridin-2-yl]acetamide] the EDU incorporation (RNF43 mutant cell lines) was “blocked”, the “Inhibition fold change (1-Treated/Control)” value (SUIT-2) was 0.00 and the IC50 (SUIT-2; [1]) was > 2000 nM. The “Inhibition fold change (1-Treated/Control)” value (PK-1) was 0.00, the IC50 (PK-1; [1]) was > 2000 nM and the “Inhibition fold change (1-Treated/Control)” value (PA-TU-8902) was 0.02. The IC50 (PA-TU-8902; Homo sapiens, PaTu 8902, 120 hours, Cell Titer Glo, read-out: LGK974 IC50s in cell line proliferation assay) was > 2000 nM, the “Inhibition fold change (1-Treated/Control)” value (BXPC3; BxPC3) was 0.01 and the IC50 (BXPC3; Homo sapiens, BXPC-3, BXPC3, 120 hours, Cell Titer Glo, read-out: LGK974 IC50s in cell line proliferation assay) was > 2000 nM. For the same compound, the “Inhibition fold change (1-Treated/Control)” value (KP-2) was 0.06, the IC50 (KP-2; [1]) was > 2000 nM and the “Inhibition fold change (1-Treated/Control)” value (SW1990) was 0.03. For the same compound, the IC50 (SW1990; [1]) was > 2000 nM, the “Inhibition fold change (1-Treated/Control)” value (TCC-PAN2) was 0.02 and the IC50 (TCC-PAN2; 120 hours) was > 2000 nM. The IC50 (TCC-PAN2; Homo sapiens, 120 h) was > 1700 nM, the “Inhibition fold change (1-Treated/Control)” value (PK-59) was 0.06 and the IC50 (PK-59; [1]) was > 2000 nM. For the same compound, the “Inhibition fold change (1-Treated/Control)” value (PA-TU-8988T) was 0.00, the IC50 (PA-TU-8988T; Homo sapiens, PaTu 8988t, 120 hours, Cell Titer Glo, read-out: LGK974 IC50s in cell line proliferation assay) was > 2000 nM and the “Inhibition fold change (1-Treated/Control)” value (HUP-T3) was 0.07. For the same compound, the IC50 (HUP-T3; [1]) was > 2000 nM, the “Inhibition fold change (1-Treated/Control)” value (HPAFII) was 0.50 and the IC50 (HPAFII; Homo sapiens, HPAF-II, 120 hours, Cell Titer Glo, read-out: LGK974 IC50s in cell line proliferation assay) was 33.6 nM. For the same compound, the IC50 (Panc 05.04; Homo sapiens, Panc 05.04, 120 hours, Cell Titer Glo, read-out: LGK974 IC50s in cell line proliferation assay) was > 2000 nM, the “Inhibition fold change (1-Treated/Control)” value (Panc 05.04; Panc05.04) was 0.09 and the “Inhibition fold change (1-Treated/Control)” value (KP-1NL) was 0.00. The IC50 (KP-1NL; [1]) was > 2000 nM, the “Inhibition fold change (1-Treated/Control)” value (KP-1N) was 0.01 and the IC50 (KP-1N; [1]) was > 2000 nM. For the same compound, the “Inhibition fold change (1-Treated/Control)” value (YAPC) was 0.20, the IC50 (YAPC; [1]) was > 2000 nM and the “Inhibition fold change (1-Treated/Control)” value (Capan-2) was 0.40. The IC50 (Capan-2; [1]) was 1.8 nM, the “Inhibition fold change (1-Treated/Control)” value (Panc1) was 0.00 and the IC50 (Panc1; Homo sapiens, PANC-1, 120 hours, Cell Titer Glo, read-out: LGK974 IC50s in cell line proliferation assay) was > 2000 nM. For the same compound, the “Inhibition fold change (1-Treated/Control)” value (PA-TU-8988S) was 0.40, the IC50 (PA-TU-8988S; Homo sapiens, PaTuÂ 8988s, 120 hours, Cell Titer Glo, read-out: LGK974 IC50s in cell line proliferation assay) was 11.6 nM and the IC50 (Panc 10.05; Homo sapiens, Panc1005, Panc 10.05, 120 hours, Cell Titer Glo, read-out: LGK974 IC50s in cell line proliferation assay) was > 2000 nM. The “Inhibition fold change (1-Treated/Control)” value (Panc 10.05; Panc10.05) was 0.02, the “Pathway inhibition in Axin2 qPCR assay” value (Axin2, KP2) was “Yes” and the “Pathway inhibition in Axin2 qPCR assay” value (Axin2, PaTu-8988T) was “Yes”.
